Test results: the kinase profiling compilation of Christmann-Franck et al. (2016)

Tests used:
Assay in all cases: KINOMEscan competition binding
Settings in all cases: compound 10.0 µM
PRKACA (human) = PRKACA (human) (UniProt P17612)
EPHA2 (human) = EPHA2 (human) (UniProt P29317)
STK3 (human) = STK3 (human) (UniProt Q13188)
DMPK (human) = DMPK (human) (UniProt Q09013)
CDK7 (human) = CDK7 (human) (UniProt P50613)
TNK1 (human) = TNK1 (human) (UniProt Q13470)
NUAK1 (human) = NUAK1 (human) (UniProt O60285)
PIK3CG (human) = PIK3CG (human) (UniProt P48736)
TYRO3 (human) = TYRO3 (human) (UniProt Q06418)
PRKG1 (human) = PRKG1 (human) (UniProt Q13976)
CDK17 (human) = CDK17 (human) (UniProt Q00537)
[1] = test system: FLT3 (human), P36888 [D835H]
PIK3C2B (human) = PIK3C2B (human) (UniProt O00750)
STK4 (human) = STK4 (human) (UniProt Q13043)
CAMK1G (human) = CAMK1G (human) (UniProt Q96NX5)
PDPK1 (human) = PDPK1 (human) (UniProt O15530)
[2] = test system: RET (human), P07949 [V804M]
RPS6KA4 KD2 (human) = RPS6KA4 KD2 (human) (UniProt O75676)
NEK5 (human) = NEK5 (human) (UniProt Q6P3R8)
CSNK1A1L (human) = CSNK1A1L (human) (UniProt Q8N752)
PIP5K1A (human) = PIP5K1A (human) (UniProt Q99755)
TAOK1 (human) = TAOK1 (human) (UniProt Q7L7X3)
MAP3K7 (human) = MAP3K7 (human) (UniProt O43318)
PIM3 (human) = PIM3 (human) (UniProt Q86V86)
ACVRL1 (human) = ACVRL1 (human) (UniProt P37023)
FGFR1 (human) = FGFR1 (human) (UniProt P11362)
PDGFRB (human) = PDGFRB (human) (UniProt P09619)
TNNI3K (human) = TNNI3K (human) (UniProt Q59H18)
MAP3K4 (human) = MAP3K4 (human) (UniProt Q9Y6R4)
MARK2 (human) = MARK2 (human) (UniProt Q7KZI7)
FLT4 (human) = FLT4 (human) (UniProt P35916)
STK24 (human) = STK24 (human) (UniProt Q9Y6E0)
NEK6 (human) = NEK6 (human) (UniProt Q9HC98)
TXK (human) = TXK (human) (UniProt P42681)
TLK1 (human) = TLK1 (human) (UniProt Q9UKI8)

NEK5 (human), sequence (Q6P3R8 whole entry, looked up): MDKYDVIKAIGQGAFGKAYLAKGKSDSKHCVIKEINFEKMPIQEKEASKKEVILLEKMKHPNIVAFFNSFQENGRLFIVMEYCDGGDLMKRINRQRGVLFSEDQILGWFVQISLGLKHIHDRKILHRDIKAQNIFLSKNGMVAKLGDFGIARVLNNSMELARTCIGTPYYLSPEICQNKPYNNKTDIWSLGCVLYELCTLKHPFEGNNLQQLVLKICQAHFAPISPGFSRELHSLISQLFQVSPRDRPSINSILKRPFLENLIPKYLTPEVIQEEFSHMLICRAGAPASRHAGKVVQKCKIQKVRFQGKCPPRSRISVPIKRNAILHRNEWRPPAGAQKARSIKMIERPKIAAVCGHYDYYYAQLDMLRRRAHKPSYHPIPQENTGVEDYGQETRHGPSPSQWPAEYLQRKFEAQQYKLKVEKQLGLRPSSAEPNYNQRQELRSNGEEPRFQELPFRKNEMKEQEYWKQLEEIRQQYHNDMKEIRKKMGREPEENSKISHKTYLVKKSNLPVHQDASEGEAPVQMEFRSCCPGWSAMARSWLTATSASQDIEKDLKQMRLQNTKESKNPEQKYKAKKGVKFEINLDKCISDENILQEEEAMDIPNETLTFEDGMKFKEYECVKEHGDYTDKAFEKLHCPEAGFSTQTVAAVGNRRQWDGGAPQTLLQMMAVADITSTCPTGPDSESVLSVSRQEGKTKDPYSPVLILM
PRKG1 (human), sequence (Q13976 whole entry, looked up): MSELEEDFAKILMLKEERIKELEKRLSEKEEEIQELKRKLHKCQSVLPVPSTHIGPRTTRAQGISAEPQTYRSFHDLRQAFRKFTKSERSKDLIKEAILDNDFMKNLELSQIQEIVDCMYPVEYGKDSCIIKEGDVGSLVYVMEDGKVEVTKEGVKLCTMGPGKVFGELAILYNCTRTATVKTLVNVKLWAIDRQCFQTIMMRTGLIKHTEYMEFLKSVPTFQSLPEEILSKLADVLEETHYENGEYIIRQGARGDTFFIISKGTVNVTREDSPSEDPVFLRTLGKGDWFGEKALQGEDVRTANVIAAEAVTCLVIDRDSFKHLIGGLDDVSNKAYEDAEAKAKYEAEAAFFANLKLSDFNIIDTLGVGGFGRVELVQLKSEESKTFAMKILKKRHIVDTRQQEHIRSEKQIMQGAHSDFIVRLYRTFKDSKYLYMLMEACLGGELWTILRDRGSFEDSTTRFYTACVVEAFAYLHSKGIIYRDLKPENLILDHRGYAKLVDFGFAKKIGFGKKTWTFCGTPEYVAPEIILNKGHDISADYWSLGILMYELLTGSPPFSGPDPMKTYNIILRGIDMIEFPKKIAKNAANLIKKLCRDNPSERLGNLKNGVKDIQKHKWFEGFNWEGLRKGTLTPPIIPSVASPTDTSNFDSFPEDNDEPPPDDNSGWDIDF
TAOK1 (human), sequence (Q7L7X3 whole entry, looked up): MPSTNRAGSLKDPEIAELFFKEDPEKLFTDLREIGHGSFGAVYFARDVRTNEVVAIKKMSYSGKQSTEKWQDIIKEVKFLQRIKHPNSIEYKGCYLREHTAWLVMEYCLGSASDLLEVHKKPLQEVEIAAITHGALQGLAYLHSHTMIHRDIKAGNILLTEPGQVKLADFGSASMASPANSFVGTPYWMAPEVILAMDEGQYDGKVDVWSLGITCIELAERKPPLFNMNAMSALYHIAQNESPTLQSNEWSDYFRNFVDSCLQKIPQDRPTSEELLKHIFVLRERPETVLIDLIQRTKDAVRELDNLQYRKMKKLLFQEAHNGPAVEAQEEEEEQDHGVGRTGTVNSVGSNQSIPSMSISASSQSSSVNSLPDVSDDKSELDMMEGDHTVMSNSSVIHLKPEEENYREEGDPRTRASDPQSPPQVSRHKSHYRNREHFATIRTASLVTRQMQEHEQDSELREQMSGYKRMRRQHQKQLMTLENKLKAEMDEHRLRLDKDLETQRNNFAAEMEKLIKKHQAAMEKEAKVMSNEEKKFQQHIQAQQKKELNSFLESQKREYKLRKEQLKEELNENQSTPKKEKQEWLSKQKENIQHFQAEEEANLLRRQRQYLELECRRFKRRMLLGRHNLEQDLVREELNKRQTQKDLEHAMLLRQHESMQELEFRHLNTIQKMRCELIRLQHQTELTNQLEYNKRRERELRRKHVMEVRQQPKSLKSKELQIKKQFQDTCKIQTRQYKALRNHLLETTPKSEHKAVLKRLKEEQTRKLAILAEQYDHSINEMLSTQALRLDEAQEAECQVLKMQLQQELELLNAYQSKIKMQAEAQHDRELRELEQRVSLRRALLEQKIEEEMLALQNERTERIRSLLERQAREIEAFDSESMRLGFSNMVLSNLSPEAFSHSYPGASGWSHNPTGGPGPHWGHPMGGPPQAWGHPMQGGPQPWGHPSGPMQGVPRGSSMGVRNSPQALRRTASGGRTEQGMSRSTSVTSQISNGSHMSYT
STK24 (human), sequence (Q9Y6E0 whole entry, looked up): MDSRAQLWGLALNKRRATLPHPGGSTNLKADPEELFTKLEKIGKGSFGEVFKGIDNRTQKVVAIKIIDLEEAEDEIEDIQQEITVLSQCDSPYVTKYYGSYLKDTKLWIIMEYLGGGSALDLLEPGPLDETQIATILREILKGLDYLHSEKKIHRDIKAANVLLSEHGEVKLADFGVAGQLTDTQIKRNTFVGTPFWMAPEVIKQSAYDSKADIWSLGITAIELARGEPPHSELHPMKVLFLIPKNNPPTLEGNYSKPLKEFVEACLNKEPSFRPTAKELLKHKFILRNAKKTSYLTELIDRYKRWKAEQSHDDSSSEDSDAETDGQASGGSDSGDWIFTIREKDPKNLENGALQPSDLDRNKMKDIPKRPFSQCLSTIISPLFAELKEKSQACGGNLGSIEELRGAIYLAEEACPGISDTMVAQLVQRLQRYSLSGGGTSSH
MAP3K4 (human), sequence (Q9Y6R4 whole entry, looked up): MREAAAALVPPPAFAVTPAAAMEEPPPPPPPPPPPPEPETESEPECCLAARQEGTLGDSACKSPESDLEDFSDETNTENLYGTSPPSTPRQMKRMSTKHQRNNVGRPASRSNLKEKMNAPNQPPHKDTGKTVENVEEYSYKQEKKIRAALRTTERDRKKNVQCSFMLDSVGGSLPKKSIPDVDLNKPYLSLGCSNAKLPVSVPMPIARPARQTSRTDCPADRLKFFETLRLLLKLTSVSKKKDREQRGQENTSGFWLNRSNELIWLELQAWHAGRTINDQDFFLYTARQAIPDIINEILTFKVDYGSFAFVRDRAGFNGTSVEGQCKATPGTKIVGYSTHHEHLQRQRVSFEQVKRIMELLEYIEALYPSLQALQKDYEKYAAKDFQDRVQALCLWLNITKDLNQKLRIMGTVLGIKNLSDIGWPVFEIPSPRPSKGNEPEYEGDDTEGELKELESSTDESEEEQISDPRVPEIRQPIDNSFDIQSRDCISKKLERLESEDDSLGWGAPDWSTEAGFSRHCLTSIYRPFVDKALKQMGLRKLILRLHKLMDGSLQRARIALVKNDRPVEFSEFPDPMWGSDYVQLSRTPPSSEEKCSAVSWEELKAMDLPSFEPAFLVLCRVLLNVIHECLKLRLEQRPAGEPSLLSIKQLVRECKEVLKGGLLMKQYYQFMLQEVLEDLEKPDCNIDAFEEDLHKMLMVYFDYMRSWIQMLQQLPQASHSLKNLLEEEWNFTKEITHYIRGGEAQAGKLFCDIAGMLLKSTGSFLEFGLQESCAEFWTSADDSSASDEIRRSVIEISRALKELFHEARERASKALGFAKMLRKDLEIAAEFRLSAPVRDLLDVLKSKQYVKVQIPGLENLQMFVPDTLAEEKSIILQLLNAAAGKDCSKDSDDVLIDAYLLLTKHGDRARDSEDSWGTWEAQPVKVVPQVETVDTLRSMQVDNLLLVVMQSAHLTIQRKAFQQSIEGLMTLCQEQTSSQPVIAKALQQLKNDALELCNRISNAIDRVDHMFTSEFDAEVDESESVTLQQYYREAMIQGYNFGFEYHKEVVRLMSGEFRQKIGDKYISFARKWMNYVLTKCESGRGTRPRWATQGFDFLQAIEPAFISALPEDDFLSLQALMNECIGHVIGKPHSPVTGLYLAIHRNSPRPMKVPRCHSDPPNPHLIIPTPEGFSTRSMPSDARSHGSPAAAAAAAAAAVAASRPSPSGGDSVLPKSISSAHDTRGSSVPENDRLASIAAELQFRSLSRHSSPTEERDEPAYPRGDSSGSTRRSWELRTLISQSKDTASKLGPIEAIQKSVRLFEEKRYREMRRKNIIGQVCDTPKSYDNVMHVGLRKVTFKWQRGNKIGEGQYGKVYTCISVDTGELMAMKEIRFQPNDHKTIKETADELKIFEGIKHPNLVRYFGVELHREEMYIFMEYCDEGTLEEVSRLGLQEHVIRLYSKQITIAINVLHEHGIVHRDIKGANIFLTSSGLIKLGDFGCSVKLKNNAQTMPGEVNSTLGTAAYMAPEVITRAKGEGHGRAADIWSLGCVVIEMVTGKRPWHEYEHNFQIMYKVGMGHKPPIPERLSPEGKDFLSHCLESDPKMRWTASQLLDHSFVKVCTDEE
MAP3K7 (human), sequence (O43318 whole entry, looked up): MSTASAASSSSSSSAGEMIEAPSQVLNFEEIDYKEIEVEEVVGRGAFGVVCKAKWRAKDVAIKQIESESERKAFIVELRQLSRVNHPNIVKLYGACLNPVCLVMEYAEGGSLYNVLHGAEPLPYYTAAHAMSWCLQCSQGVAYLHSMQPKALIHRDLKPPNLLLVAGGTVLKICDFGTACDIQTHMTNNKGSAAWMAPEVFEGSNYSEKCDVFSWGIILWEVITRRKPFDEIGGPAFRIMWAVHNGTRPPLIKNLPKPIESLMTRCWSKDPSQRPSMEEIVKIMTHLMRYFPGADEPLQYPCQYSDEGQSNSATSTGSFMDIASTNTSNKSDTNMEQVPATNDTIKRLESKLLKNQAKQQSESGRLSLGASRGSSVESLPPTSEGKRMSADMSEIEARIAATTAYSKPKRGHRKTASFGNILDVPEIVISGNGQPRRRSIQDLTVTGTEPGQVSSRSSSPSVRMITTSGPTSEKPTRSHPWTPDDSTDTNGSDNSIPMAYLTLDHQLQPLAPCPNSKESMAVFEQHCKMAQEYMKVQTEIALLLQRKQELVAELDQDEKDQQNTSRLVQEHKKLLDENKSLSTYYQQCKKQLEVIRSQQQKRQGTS

kinase still bound, per cent of control (PRKACA (human)) [%] | kinase still bound, per cent of control (EPHA2 (human)) [%] | kinase still bound, per cent of control (STK3 (human)) [%] | kinase still bound, per cent of control (DMPK (human)) [%] | kinase still bound, per cent of control (CDK7 (human)) [%] | kinase still bound, per cent of control (TNK1 (human)) [%] | kinase still bound, per cent of control (NUAK1 (human)) [%] | kinase still bound, per cent of control (TYRO3 (human)) [%] | kinase still bound, per cent of control (PRKG1 (human)) [%] | kinase still bound, per cent of control (CDK17 (human)) [%] | kinase still bound, per cent of control [1] [%] | kinase still bound, per cent of control (STK4 (human)) [%] | kinase still bound, per cent of control (CAMK1G (human)) [%] | kinase still bound, per cent of control (PDPK1 (human)) [%] | kinase still bound, per cent of control (RPS6KA4 KD2 (human)) [%] | kinase still bound, per cent of control (NEK5 (human)) [%] | kinase still bound, per cent of control (CSNK1A1L (human)) [%] | kinase still bound, per cent of control (PIP5K1A (human)) [%] | kinase still bound, per cent of control (PIM3 (human)) [%] | kinase still bound, per cent of control (ACVRL1 (human)) [%] | SMILES | other results
100 | 100 | 0.2 | 10 | 1.8 | 4 | 0.95 | 29 | 100 | 100 | 0.65 | 4.2 | 100 | 100 | 100 | 100 | 26 | 4.6 | 100 | 100 | CNC(=O)c1ccc(Nc2cc(Nc3ccccc3S(=O)(=O)C(C)C)c3cc[nH]c3n2)nc1 | kinase still bound, per cent of control (PIK3CG (human)): 100%; kinase still bound, per cent of control (PIK3C2B (human)): 100%; kinase still bound, per cent of control [2]: 1.2%; kinase still bound, per cent of control (TAOK1 (human)): 0.65%; kinase still bound, per cent of control (MAP3K7 (human)): 0.35%; kinase still bound, per cent of control (FGFR1 (human)): 11%; kinase still bound, per cent of control (PDGFRB (human)): 8.4%; kinase still bound, per cent of control (TNNI3K (human)): 100%; kinase still bound, per cent of control (MAP3K4 (human)): 100%; kinase still bound, per cent of control (MARK2 (human)): 33%; kinase still bound, per cent of control (FLT4 (human)): 29%; kinase still bound, per cent of control (STK24 (human)): 100%; kinase still bound, per cent of control (NEK6 (human)): 100%; kinase still bound, per cent of control (TXK (human)): 33%; kinase still bound, per cent of control (TLK1 (human)): 100%
100 | 100 | 100 | 100 | 100 | 100 | 100 | 100 | 100 | 100 | 100 | 100 | 100 | 100 | 100 | 100 | 100 | 100 | 100 | 100 | CCN(CC)CCCCNc1ncc2cc(-c3cc(OC)cc(OC)c3)c(NC(=O)NC(C)(C)C)nc2n1 | kinase still bound, per cent of control (FGFR1 (human)): 0.4%; kinase still bound, per cent of control (PDGFRB (human)): 38%; kinase still bound, per cent of control (TNNI3K (human)): 100%; kinase still bound, per cent of control (MAP3K4 (human)): 100%; kinase still bound, per cent of control (MARK2 (human)): 100%; kinase still bound, per cent of control (FLT4 (human)): 6%; kinase still bound, per cent of control (STK24 (human)): 7%; kinase still bound, per cent of control (NEK6 (human)): 100%; kinase still bound, per cent of control (TXK (human)): 100%; kinase still bound, per cent of control (TLK1 (human)): 100%
100 | 100 | 100 | 100 | 100 | 28 | 100 | 100 | 100 | 100 | 16 | 100 | 100 | 100 | 100 | 100 | 100 | 100 | 100 | 100 | C=CC(=O)Nc1ccc(CN(C(=O)Nc2c(Cl)c(OC)cc(OC)c2Cl)c2cc(Nc3ccc(N4CCN(C)CC4)cc3)ncn2)cc1 | kinase still bound, per cent of control (PIK3CG (human)): 100%; kinase still bound, per cent of control (PIK3C2B (human)): 100%; kinase still bound, per cent of control [2]: 100%; kinase still bound, per cent of control (TAOK1 (human)): 0.8%; kinase still bound, per cent of control (MAP3K7 (human)): 100%; kinase still bound, per cent of control (FGFR1 (human)): 2.2%; kinase still bound, per cent of control (PDGFRB (human)): 0%; kinase still bound, per cent of control (TNNI3K (human)): 100%; kinase still bound, per cent of control (MAP3K4 (human)): 10%; kinase still bound, per cent of control (MARK2 (human)): 100%; kinase still bound, per cent of control (FLT4 (human)): 0.1%; kinase still bound, per cent of control (STK24 (human)): 18%; kinase still bound, per cent of control (NEK6 (human)): 100%; kinase still bound, per cent of control (TXK (human)): 16%; kinase still bound, per cent of control (TLK1 (human)): 100%

SMILES | kinase still bound, per cent of control (PRKACA (human)) [%] | kinase still bound, per cent of control (EPHA2 (human)) [%] | kinase still bound, per cent of control (STK3 (human)) [%] | kinase still bound, per cent of control (DMPK (human)) [%] | kinase still bound, per cent of control (CDK7 (human)) [%] | kinase still bound, per cent of control (TNK1 (human)) [%] | kinase still bound, per cent of control (NUAK1 (human)) [%] | kinase still bound, per cent of control (TYRO3 (human)) [%] | kinase still bound, per cent of control (PRKG1 (human)) [%] | kinase still bound, per cent of control (CDK17 (human)) [%] | kinase still bound, per cent of control [1] [%] | kinase still bound, per cent of control (STK4 (human)) [%] | kinase still bound, per cent of control (CAMK1G (human)) [%] | kinase still bound, per cent of control (PDPK1 (human)) [%] | kinase still bound, per cent of control (RPS6KA4 KD2 (human)) [%] | kinase still bound, per cent of control (NEK5 (human)) [%] | kinase still bound, per cent of control (CSNK1A1L (human)) [%] | kinase still bound, per cent of control (PIP5K1A (human)) [%] | kinase still bound, per cent of control (PIM3 (human)) [%] | kinase still bound, per cent of control (ACVRL1 (human)) [%] | other results
Cc1n[nH]c2ccc(-c3cncc(OC[C@@H](N)Cc4c[nH]c5ccccc45)c3)cc12 | 0.85 | 100 | 0.35 | 0.8 | 0.3 | 100 | 100 | 100 | 0.65 | 25 | 5 | 100 | 100 | 100 | 9.9 | 100 | 11 | 9.4 | 0.75 | 100 | kinase still bound, per cent of control (PIK3CG (human)): 100%; kinase still bound, per cent of control (PIK3C2B (human)): 100%; kinase still bound, per cent of control [2]: 10%; kinase still bound, per cent of control (TAOK1 (human)): 0.05%; kinase still bound, per cent of control (MAP3K7 (human)): 3.2%; kinase still bound, per cent of control (FGFR1 (human)): 100%; kinase still bound, per cent of control (PDGFRB (human)): 28%; kinase still bound, per cent of control (TNNI3K (human)): 100%; kinase still bound, per cent of control (MAP3K4 (human)): 100%; kinase still bound, per cent of control (MARK2 (human)): 13%; kinase still bound, per cent of control (FLT4 (human)): 100%; kinase still bound, per cent of control (STK24 (human)): 100%; kinase still bound, per cent of control (NEK6 (human)): 100%; kinase still bound, per cent of control (TXK (human)): 100%; kinase still bound, per cent of control (TLK1 (human)): 100%
